# Experimental data as given in patent US11879140B2, “P21 mRNA targeting DNAzymes” (1E Therapeutics Ltd., priority 2020, dated 2024).
# Assays:
# [1] = system: senescent human IMR-90 fibroblast cells; format: cell-based; conditions: increasing concentrations (FIGS. 6A-C, 12A-C)
# Outline: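 Senescence was induced by etoposide at […] for 48 h, with the phenotype present 7 days later, or by H-RasG12 or long-term passaging. Cells grown at 5% oxygen were transfected with DNAzymes by Lipofectamine 2000, and survival was scored 3-6 days later by PrestoBlue relative to Lipofectamine-only control.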
# [2] = DNAzyme stability analysis in BALF; format: in vitro ADME, mice
# Method: DNAzyme stability was assessed by incubation with PBS, plasma and BALF (Bronchoalveolar Lavage Fluid). A comparison between unmodified and 3′Inverted dT modification was made. Following incubation for the indicated time points, samples were analyzed using gel electrophoresis. Quantification compared to time 0 was performed using Image Lab software (Bio Rad).
substance,measurement,setting,value
"DNAzyme 1670: SEQ ID NO: 54: GGGAAAGGAggctagctacaacgaAAGGGGGAG (DNA GGGAAAGGAGGCTAGCTACAACGAAAGGGGGAG; DNA, backbone and methylation of C not given here)","selectivity of killing, senescent versus growing IMR-90 cells",[1],wide range of selective doses
same,stability in BALF of diseased (bleomycin) mice compared to naive BALF,[2]; FIG. 13C,lower
same,start of reduction in size (below full length) in BALF,"[2]; unmodified DNAzyme, from the start of incubation (FIG. 13A)",24 h
same,time to degradation / stability in BALF,"[2]; with 3′ inverted dT modification versus unmodified (FIGS. 7B, 13C)",significantly increased
